In US20220288068A1, “PHARMACEUTICAL PREPARATION” (MERCK PATENT GMBH, priority 2019, published 2022):
≈ marks a conversion by molar mass, not a printed value.

Assays:
[1] = Solubility in oils for SEDDS/SMEDDS; type: physicochemical; conditions: oil or lipid; neutral oil
Experimental: Due to the relatively high doses necessary for therapeutic effect (approximately 500 mg) and a maximal dose in a self-emulsifying capsule formulation (SEDDS or SMEDDS) of not more than 5 mg, the patient would have to take 100 capsules to achieve the target dose.

[2] = Solubility in biorelevant media (FaSSIF, FeSSIF)
Experimental: Despite such low solubility rather high doses of far above 100 mg are needed for its use in the therapy. […] Accordingly, a pharmaceutical preparation for oral administration must have a high bioavailability to provide the high doses that are needed to achieve the desired therapeutic effect. Otherwise the pharmaceutical preparation would need to have an increased size not usable for its oral administration due to problems with its swallowability.

[3] = Young's modulus by ultrasound-assisted instrumented single punch press; type: physicochemical; conditions: neat substance, in dependence of solid fraction; FIG. 3 and FIG. 4
Experimental: Young's modulus is assessed as an indicator for material stiffness (the higher Young's modulus, the more rigid a substance is) whereby its measurement is done in dependence of the solid fraction, which is complementary to porosity (i.e. solid fraction=1−porosity fraction). With this, a solid fraction of 1 indicates no porosity, i.e. no air entrapped in the solid phase. Pharmaceutical relevant solid fractions usually range from 0.75 to 0.85. Porosities have been determined by nitrogen pycnometry.
The measurements to determine the Young's modulus are conducted on a commercially available instrumented single punch press (Romaco Kilian StylOne system) with ultrasound-assisted measurement punches. For this purpose, neat substances are compacted between the upper and the lower punch, leading to densification of the material. The ultrasound velocity in the sample in dependence of the degree of densification is recorded and used for calculation of Youngs modulus of the specific substance.

In the case of `CN1CCC(COc2cnc(-c3cccc(Cn4nc(-c5cccc(C#N)c5)ccc4=O)c3)nc2)CC1` [3-(1-{3-[5-(1-Methyl-piperidin-4-ylmethoxy)-pyrimidin-2-yl]-benzyl}-6-oxo-1,6-dihydro-pyridazin-3-yl)-benzonitrile], the solubility [1] is reported as < 5000 µg/mL, the BCS classification ([2]; Amidon et al., 1995) is reported as “BCS IV” and the solubility ([2]; fassif) is reported as 43 µg/mL (≈ 87.3 µM). The “Young's modulus (elastic properties)” value [3] was “distinct lower Young's moduli compared to widely used pharmaceutical fillers”.
